From ChEMBL document CHEMBL2150990, “Substrate-like water soluble lipase inhibitors from Filipendula kamtschatica” (Bioorg Med Chem Lett, 2012)

How the values were obtained:
[1] = biological target: T1, Pancreatic triacylglycerol lipase (Sus scrofa, UniProt P00591); assay: Inhibition of porcine pancreatic lipase using micellar solution of triolein as substrate preincubated for 5 mins before substrate addition measured after 30 mins
T1 sequence (P00591 whole entry): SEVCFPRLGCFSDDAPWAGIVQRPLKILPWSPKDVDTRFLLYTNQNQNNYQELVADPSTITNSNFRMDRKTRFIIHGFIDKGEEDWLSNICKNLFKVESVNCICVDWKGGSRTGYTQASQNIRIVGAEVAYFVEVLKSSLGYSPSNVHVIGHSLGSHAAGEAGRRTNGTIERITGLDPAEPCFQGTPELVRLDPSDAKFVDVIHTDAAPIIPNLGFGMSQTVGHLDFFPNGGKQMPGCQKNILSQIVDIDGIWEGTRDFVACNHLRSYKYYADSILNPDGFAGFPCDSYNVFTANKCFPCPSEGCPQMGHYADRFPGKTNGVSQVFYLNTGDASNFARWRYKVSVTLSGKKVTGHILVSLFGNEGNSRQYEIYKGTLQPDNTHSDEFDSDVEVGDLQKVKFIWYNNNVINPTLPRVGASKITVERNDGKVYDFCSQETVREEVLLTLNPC

[2] = biological target: T2, Pancreatic triacylglycerol lipase (Sus scrofa) (UniProt P00591); details: 0.4 uM
T2 sequence (whole entry): T1 sequence (P00591 whole entry)
Description: Inhibition of porcine pancreatic lipase using micellar solution of triolein as substrate at 0.4 uM preincubated for 5 mins before substrate addition measured after 30 mins

[3] = biological target: T2, Pancreatic triacylglycerol lipase (Sus scrofa); assay: Inhibition of porcine pancreatic lipase using micellar solution of triolein as substrate at 1 mM preincubated for 5 mins before substrate addition measured after 30 mins

SMILES	IC50 [1] [µM]	inhibition [2] [%]	inhibition [3] [%]
O=c1c(O[C@@H]2O[C@H](CO)[C@H](O)[C@H](O)[C@H]2O[C@@H]2OC[C@@H](O)[C@H](O)[C@H]2O)c(-c2ccc(O)c(O)c2)oc2cc(O)cc(O)c12	300	–	–
O=C(/C=C/c1ccc(O)c(O)c1)O[C@@H](C(=O)O)[C@@H](O)COC(=O)c1cc(O)c(O)c(O)c1	246	–	–
O=C(/C=C/c1ccc(O)c(O)c1)O[C@@H](COC(=O)c1cc(O)c(O)c(O)c1)[C@@H](O)C(=O)O	26	–	–
CCCCCCCCCCC[C@@H](C[C@@H]1OC(=O)[C@H]1CCCCCC)OC(=O)[C@H](CC(C)C)NC=O	–	55	–
O=C(O)/C=C/c1ccc(O)c(O)c1 [CAFFEIC ACID]	> 1000	–	13
O=C(O)c1cc(O)c(O)c(O)c1 [GALLIC ACID]	> 1000	–	4
O=C(O)[C@H](O)[C@@H](O)CO [L-THREONIC ACID]	> 1000	–	30
